Key:
[1] = test system: Lacticaseibacillus rhamnosus FMBL L23004 CNN; test: Antibiotic sensitivity, drug-sensitive paper; for Antibiotic sensitivity of Lacticaseibacillus rhamnosus FMBL L23004 CNN: key: R: resistant; I: intermediately sensitive; S: sensitive; type: cell-based; settings: for Antibiotic sensitivity of Lacticaseibacillus rhamnosus FMBL L23004 CNN: drug-sensitive paper (content per Table 3), MRS solid medium, anaerobic 37° C. 24 h; for Resistant / sensitive, Lacticaseibacillus rhamnosus FMBL L23004 CNN: text statement for the two strains
Procedure: (§1) After two strains were cultured anaerobically at 37° C. at a 2% inoculation rate for 24 h, 100 μL (about 1×10^7 cfu/mL) of a bacteria solution of each strain was coated on the surface of an MRS solid medium, and then drug-sensitive paper (purchased from Oxoid Company, UK) was lightly pressed tightly in the middle of each of the mediums; and after anaerobic culture was carried out at 37° C. for 24 h, the bacteriostatic condition of the drug-sensitive paper was observed, and the diameter of the inhibition zone was measured.

[2] = test system: Lactiplantibacillus plantarum FMBL L23036 CNN; test: Antibiotic sensitivity, drug-sensitive paper; for Antibiotic sensitivity of Lactiplantibacillus plantarum FMBL L23036 CNN: key: R: resistant; I: intermediately sensitive; S: sensitive; type: cell-based; settings: for Antibiotic sensitivity of Lactiplantibacillus plantarum FMBL L23036 CNN: drug-sensitive paper (content per Table 3), MRS solid medium, anaerobic 37° C. 24 h; for Resistant / sensitive, Lactiplantibacillus plantarum FMBL L23036 CNN: text statement for the two strains
Procedure: as §1

| Compound | Antibiotic sensitivity of Lacticaseibacillus rhamnosus FMBL L23004 CNN [1] | Resistant / sensitive, Lacticaseibacillus rhamnosus FMBL L23004 CNN [1] | Antibiotic sensitivity of Lactiplantibacillus plantarum FMBL L23036 CNN [2] | Resistant / sensitive, Lactiplantibacillus plantarum FMBL L23036 CNN [2] |
| --- | --- | --- | --- | --- |
| NCC[C@H](O)C(=O)N[C@@H]1C[C@H](N)[C@@H](O[C@H]2O[C@H](CN)[C@@H](O)[C@H](O)[C@H]2O)[C@H](O)[C@H]1O[C@H]1O[C@H](CO)[C@@H](O)[C@H](N)[C@H]1O [Amikacin] | R | resistant | R | resistant |
| Gentamicin | R | resistant | R | resistant |
| Cc1onc(-c2ccccc2)c1C(=O)N[C@@H]1C(=O)N2[C@@H]1SC(C)(C)[C@@H]2C(=O)O [Oxacillin] | I |  | R |  |
| CCn1cc(C(=O)O)c(=O)c2cc(F)c(N3CCNCC3)cc21 [Norfloxacin] | R | resistant | R | resistant |
| CC1(C)S[C@@H]2[C@H](NC(=O)[C@H](N)c3ccc(O)cc3)C(=O)N2[C@H]1C(=O)O [Amoxicillin] | S | sensitive | S | sensitive |
| O=C(N[C@H](CO)[C@H](O)c1ccc([N+](=O)[O-])cc1)C(Cl)Cl [Chloramphenicol] | S | sensitive | S | sensitive |
| CC1(C)S[C@@H]2[C@H](NC(=O)[C@H](N)c3ccccc3)C(=O)N2[C@H]1C(=O)O [Ampicillin] | S | sensitive | S | sensitive |
| Teicoplanin | R | resistant | R | resistant |
| O=C(Cc1cccs1)N[C@@H]1C(=O)N2C(C(=O)[O-])=C(C[n+]3ccccc3)CS[C@H]12 [Cephaloridine] | S | sensitive | S | sensitive |
| CCC[C@@H]1C[C@@H](C(=O)N[C@@H]([C@H]2O[C@H](SC)[C@H](O)[C@@H](O)[C@H]2O)[C@H](C)Cl)N(C)C1 [Clindamycin] | S |  | S |  |
| Penicillin | S | sensitive | S | sensitive |
| NC[C@H]1O[C@H](O[C@H]2[C@H](O)[C@@H](O[C@H]3O[C@H](CO)[C@@H](O)[C@H](N)[C@H]3O)[C@H](N)C[C@@H]2N)[C@H](O)[C@@H](O)[C@@H]1O [Kanamycin] | R |  | R |  |
| O=C(O)c1cn(C2CC2)c2cc(N3CCNCC3)c(F)cc2c1=O [Ciprofloxacin] | R | resistant | R | resistant |
| CC[C@H]1OC(=O)[C@H](C)[C@@H](O[C@H]2C[C@@](C)(OC)[C@@H](O)[C@H](C)O2)[C@H](C)[C@@H](O[C@@H]2O[C@H](C)C[C@H](N(C)C)[C@H]2O)[C@](C)(O)C[C@@H](C)C(=O)[C@H](C)[C@@H](O)[C@]1(C)O [Erythromycin] | S |  | I |  |
| CN(C)c1ccc(O)c2c1C[C@H]1C[C@H]3[C@H](N(C)C)C(O)=C(C(N)=O)C(=O)[C@@]3(O)C(O)=C1C2=O [Minocycline] | S |  | S |  |
| [H]/N=C(/N)N[C@H]1[C@H](O)[C@@H](O)[C@H](O[C@@H]2O[C@@H](C)[C@](O)(C=O)[C@H]2O[C@@H]2O[C@@H](CO)[C@H](O)[C@@H](O)[C@@H]2NC)[C@@H](N/C(N)=N\[H])[C@@H]1O [Streptomycin] | I |  | R |  |
| Polymyxin | R | resistant | R | resistant |
| CN(C)[C@@H]1C(O)=C(C(N)=O)C(=O)[C@@]2(O)C(O)=C3C(=O)c4c(O)cccc4[C@@](C)(O)[C@H]3C[C@@H]12 [Tetracycline] | S |  | S |  |
| CN[C@H](CC(C)C)C(=O)N[C@H]1C(=O)N[C@@H](CC(N)=O)C(=O)N[C@H]2C(=O)N[C@H]3C(=O)N[C@H](C(=O)N[C@H](C(=O)O)c4cc(O)cc(O)c4-c4cc3ccc4O)[C@H](O)c3ccc(c(Cl)c3)Oc3cc2cc(c3O[C@@H]2O[C@H](CO)[C@@H](O)[C@H](O)[C@H]2O[C@H]2C[C@](C)(N)[C@H](O)[C@H](C)O2)Oc2ccc(cc2Cl)[C@H]1O [Vancomycin] | R | resistant | R | resistant |
| CO[C@H]1/C=C/O[C@@]2(C)Oc3c(C)c(O)c4c(O)c(c(/C=N/N5CCN(C)CC5)c(O)c4c3C2=O)NC(=O)/C(C)=C\C=C\[C@H](C)[C@H](O)[C@@H](C)[C@@H](O)[C@@H](C)[C@H](OC(C)=O)[C@@H]1C [Rifampicin] | S |  | S |  |

— patent US20250277186A1, “COMPOUND MICROBIAL INOCULUM WITH BACTERIOSTATIC EFFECT AND USE THEREOF IN PREPARATION OF YOGURT” (priority 2023, published 2025)
